Patent US20220202882A1, “EFFECT OF COMBINATION OF BIFIDOBACTERIUM AND BERBERINE ON PRE-DIABETES AND TYPE 2 DIABETES” (The Fourth Military Medical University, priority 2018, published 2022)
Counter-ions that a name gives are not always drawn.

Test system: pre-diabetic and type 2 diabetes mellitus patients
Assay: Clinical trial: ketone level in urine
Assay type: in vivo, human
Details: for Effect on urine ketone body level (in words) / Post-treatment ketone level in urine - pre-treatment ketone level in urine, mean value: 16 weeks of treatment; for Post-treatment ketone level in urine - pre-treatment ketone level in urine, mean value / Post-treatment ketone level in urine, mean value / Pre-treatment ketone level in urine, mean value: FAS; for Post-treatment ketone level in urine, mean value: after 16 weeks of treatment; for Pre-treatment ketone level in urine, mean value: baseline before treatment
Description: From June 2015 to October 2018, a double-blind, randomized, and parallel-controlled trial, studying the effects of the combined use of Bifidobacterium and berberine on pre-diabetic and type 2 diabetes mellitus patients, was conducted in 10 research centers in Xi'an, Yan'an and Shangluo of Shaanxi province, etc., including the First Affiliated Hospital of the Fourth Military Medical University. The trial included an enrollment stage of 2 weeks and a treatment stage of 16 weeks. After passing the first visit 1 (see V1 in Table 1), the subjects entered the enrollment stage, i.e., 2 weeks of lifestyle intervention, followed by a re-screening (see V2 in Table 1). The subjects were subjected to a 16-week course of treatment after passing the screening. See Table 1 for the detailed screening parameters. After the enrollment stage, the baseline data of the 300 successfully enrolled subjects were collected. Meanwhile, the subjects started to receive lifestyle guidance, and were randomly divided into four groups for 16 weeks of treatments. 1) Bifidobacterium group: the subjects were administered with Bifidobacterium capsules (Livzon Pharmaceutical Group Inc., batch no.: 20141013), 0.35 g/capsule, each capsule containing 50,000,000 viable bacteria (Bifidobacterium adolescentis DM8504), 2 capsules/time, 2 times/day, plus berberine placebo tablets (Northeast Pharma Group Shenyang First Pharma Co., Ltd., Lot no.: 20150101, containing 80.2% microcrystalline cellulose, 9.4% pregelatinized starch, 6.4% sodium carboxymethyl starch, 1% magnesium stearate, and 3% copovidone), 0.1 g/tablet, 5 tablets/time, 2 times/day. 2) Berberine group: the subjects were administered with berberine tablets (Northeast Pharma Group Shenyang First Pharma Co., Ltd., Lot no.: 130917, each tablet weighted 0.165 g and contained 0.1 g active berberine ingredient (berberine hydrochloride), with the same excipients as the placebo tablets), 5 tablets/time, 2 times/day, plus Bifidobacterium placebo capsules (Livzon Pharmaceutical Group Inc., Lot no.: 141001, specifically containing 0.348 g spray-dried lactose, and 0.002 g magnesium stearate), 0.35 g/capsule, 2 capsules/time, 2 times/day. 3) Combination Group: the subjects were administered with Bifidobacterium capsules, 0.35 g/capsule, each capsule containing 50,000,000 viable bacteria (B. adolescentis DM8504), 2 capsules/time, 2 times/day, plus berberine tablets, 0.1 g/tablet, each tablet containing 0.1 g active berberine ingredient (berberine hydrochloride), 5 tablets/time, 2 times/day. 4) Control group: the subjects were administered with Bifidobacteria placebo capsules, 0.35 g/capsule, 2 capsules/time, 2 times/day, plus berberine placebo tablets, 0.1 g/tablet, 5 tablets/time, 2 times/day. Bifidobacterium capsules were taken after meals and berberine tablets were taken before meals. Tests of all samples in the study were carried out in a designated laboratory with standardized criteria. Blood analysis covered hundreds of indicators including insulin, amino acids, cytokines etc. After the sample testing was finished, 1) Chi-Squared test and t-test were used to evaluate the intergroup balance of the baseline data including the demographic characteristics and pre-treatment indicators, wherein the baseline data referred to those collected at the second visit, before the formal administration, the data collected at the first visit on the enrollment stage were used instead if the data at the second visit was lacking; 2) two-way disordered CM-CH11, Kruska-Wilcox test, etc. were used for analysis and intergroup comparison of pre- and post-treatment indicators such as fasting plasma glucose (FPG), HbA1c, plasma glucose at 2 hours post OGTT (2-h PPG), blood pressure, blood lipids, body weight and BMI; 3) adverse events and hypoglycemia events were described in terms of the type, frequency and relevance with the drugs, for safety evaluation. Software SAS 9.1.3 was used for statistical analysis with all analysis processes being programmed. […]

Bifidobacterium
Effect on urine ketone body level (in words): not observed
Post-treatment ketone level in urine - pre-treatment ketone level in urine, mean value: −0.0909
Post-treatment ketone level in urine, mean value: 0.0341
Pre-treatment ketone level in urine, mean value: 0.1100

COc1ccc2cc3[n+](cc2c1OC)CCc1cc2c(cc1-3)OCO2 [Berberine, berberine hydrochloride]
Effect on urine ketone body level (in words): not observed
Post-treatment ketone level in urine - pre-treatment ketone level in urine, mean value: 0.0526
Post-treatment ketone level in urine, mean value: 0.0513
Pre-treatment ketone level in urine, mean value: 0.0000
